Data from patent publication US20230085307A1, “PYRIDAZINONE COMPOUND AND HERBICIDE” (NISSAN CHEMICAL CORPORATION, priority 2019, published 2023).

system: Chinese sprangletop; test: Test Example 3: herbicidal effect by foliage application, Wagner pot (Table 18, symbol D); assay type: in vivo, chinese sprangletop (Leptochloa chinensis); details: 320 g/ha
Summary of the method: (§1)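 Plants were sown in alluvial soil held under 0.1–0.5 cm standing water and grown 14 days in a greenhouse at 25–30 °C. An emulsifiable formulation, water-diluted to the set dose, was then sprayed onto the foliage, and effects were scored three weeks later using previously defined criteria.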

Row | SMILES | herbicidal effect on D (Chinese sprangletop), rating 0-5
1 | Cc1nn(C)c(=O)c(-c2c(-c3ccc(OCC#N)cc3)sc3ccc(F)cc23)c1O [2-066] | 3 (Herbicidal rate of 40% or more and less than 70%)

system: chickweed; test: Test Example 5: herbicidal effect by foliage application, plastic box (Table 20, symbol P); assay type: in vivo, common chickweed (Stellaria media); details: foliage application, 320 g/ha, evaluated three weeks after application
Summary of the method: (§2)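 Foliar spray test: emulsion formulation diluted in water to a set application rate, sprayed onto 14-day-old plants raised in diluvial soil at 25° C to 30° C under glass. Both herbicidal effect and crop effect rated visually three weeks later.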

Row | SMILES | herbicidal effect on P: chickweed
2 | Cc1nn(C)c(=O)c(-c2c(-c3ccc(OCC#N)cc3)sc3ccc(F)cc23)c1O [2-066] | 5 (Herbicidal rate of 90% or more (almost completely withered))

system: green foxtail; test: Test Example 5: herbicidal effect by foliage application, plastic box (Table 20, symbol G); assay type: in vivo, green foxtail (Setaria viridis); details: foliage application, 320 g/ha, evaluated three weeks after application
Summary of the method: as §2

Row | SMILES | herbicidal effect on G: green foxtail
3 | Cc1nn(C)c(=O)c(-c2c(-c3ccc(OCC#N)cc3)sc3ccc(F)cc23)c1O [2-066] | 4 (Herbicidal rate of 70% or more and less than 90%)

system: windgrass; test: Test Example 5: herbicidal effect by foliage application, plastic box (Table 20, symbol L); assay type: in vivo, windgrass (Apera spica-venti); details: foliage application, 320 g/ha, evaluated three weeks after application
Summary of the method: as §2

Row | SMILES | herbicidal effect on L: windgrass
4 | Cc1nn(C)c(=O)c(-c2c(-c3ccc(OCC#N)cc3)sc3ccc(F)cc23)c1O [2-066] | 0 (Herbicidal rate of 5% or less (almost no effect))

system: chickweed; test: Test Example 4: herbicidal effect by soil treatment (Table 19, symbol P); assay type: in vivo, common chickweed (Stellaria media); details: 320 g/ha
Summary of the method: (§3)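 Step 1: sow seeds in sterilized diluvial soil, cover ~1.5 cm. Step 2: spray diluted emulsion onto soil surface at predetermined rate. Step 3: greenhouse, 25–30° C, three weeks. Step 4: grade effect on each plant by earlier criteria.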

Row | SMILES | herbicidal effect rating, P: chickweed
5 | Cc1nn(C)c(=O)c(-c2c(-c3ccc(OCC#N)cc3)sc3ccc(F)cc23)c1O [2-066] | 4 (Herbicidal rate of 70% or more and less than 90%)

system: green foxtail; test: Test Example 4: herbicidal effect by soil treatment (Table 19, symbol G); assay type: in vivo, green foxtail (Setaria viridis); details: 320 g/ha
Summary of the method: as §3

Row | SMILES | herbicidal effect rating, G: green foxtail
6 | Cc1nn(C)c(=O)c(-c2c(-c3ccc(OCC#N)cc3)sc3ccc(F)cc23)c1O [2-066] | 0 (Herbicidal rate of 5% or less (almost no effect))

system: southern crabgrass; test: Test Example 4: herbicidal effect by soil treatment (Table 19, symbol F); assay type: in vivo, southern crabgrass (Digitaria ciliaris); details: 320 g/ha
Summary of the method: as §3

Row | SMILES | herbicidal effect rating, F: southern crabgrass
7 | Cc1nn(C)c(=O)c(-c2c(-c3ccc(OCC#N)cc3)sc3ccc(F)cc23)c1O [2-066] | 0 (Herbicidal rate of 5% or less (almost no effect))

system: velvetleaf; test: Test Example 5: herbicidal effect by foliage application, plastic box (Table 20, symbol M); assay type: in vivo, velvetleaf (Abutilon theophrasti); details: foliage application, 320 g/ha, evaluated three weeks after application
Summary of the method: as §2

Row | SMILES | herbicidal effect on M: velvetleaf
8 | Cc1nn(C)c(=O)c(-c2c(-c3ccc(OCC#N)cc3)sc3ccc(F)cc23)c1O [2-066] | 3 (Herbicidal rate of 40% or more and less than 70%)

system: wild oat; test: Test Example 4: herbicidal effect by soil treatment (Table 19, symbol I); assay type: in vivo, wild oat (Avena fatua); details: 320 g/ha
Summary of the method: as §3

Row | SMILES | herbicidal effect rating, I: wild oat
9 | Cc1nn(C)c(=O)c(-c2c(-c3ccc(OCC#N)cc3)sc3ccc(F)cc23)c1O [2-066] | 0 (Herbicidal rate of 5% or less (almost no effect))

system: lambsquarters; test: Test Example 4: herbicidal effect by soil treatment (Table 19, symbol O); assay type: in vivo, lambsquarters (Chenopodium album); details: 320 g/ha
Summary of the method: as §3

Row | SMILES | herbicidal effect rating, O: lambsquarters
10 | Cc1nn(C)c(=O)c(-c2c(-c3ccc(OCC#N)cc3)sc3ccc(F)cc23)c1O [2-066] | 0 (Herbicidal rate of 5% or less (almost no effect))

system: redroot pigweed; test: Test Example 4: herbicidal effect by soil treatment (Table 19, symbol N); assay type: in vivo, redroot pigweed (Amaranthus retroflexus); details: 320 g/ha
Summary of the method: as §3

Row | SMILES | herbicidal effect rating, N: redroot pigweed
11 | Cc1nn(C)c(=O)c(-c2c(-c3ccc(OCC#N)cc3)sc3ccc(F)cc23)c1O [2-066] | 0 (Herbicidal rate of 5% or less (almost no effect))

system: Italian ryegrass; test: Test Example 5: herbicidal effect by foliage application, plastic box (Table 20, symbol K); assay type: in vivo, Italian ryegrass (Lolium multiflorum); details: foliage application, 320 g/ha, evaluated three weeks after application
Summary of the method: as §2

Row | SMILES | herbicidal effect on K: Italian ryegrass
12 | Cc1nn(C)c(=O)c(-c2c(-c3ccc(OCC#N)cc3)sc3ccc(F)cc23)c1O [2-066] | 1 (Herbicidal rate of 5% or more and less than 20%)

system: persian speedwell; test: Test Example 5: herbicidal effect by foliage application, plastic box (Table 20, symbol R); assay type: in vivo, Persian speedwell (Veronica persica); details: foliage application, 320 g/ha, evaluated three weeks after application
Summary of the method: as §2

Row | SMILES | herbicidal effect on R: persian speedwell
13 | Cc1nn(C)c(=O)c(-c2c(-c3ccc(OCC#N)cc3)sc3ccc(F)cc23)c1O [2-066] | 5 (Herbicidal rate of 90% or more (almost completely withered))

system: windgrass; test: Test Example 4: herbicidal effect by soil treatment (Table 19, symbol L); assay type: in vivo, windgrass (Apera spica-venti); details: 320 g/ha
Summary of the method: as §3

Row | SMILES | herbicidal effect rating, L: windgrass
14 | Cc1nn(C)c(=O)c(-c2c(-c3ccc(OCC#N)cc3)sc3ccc(F)cc23)c1O [2-066] | 0 (Herbicidal rate of 5% or less (almost no effect))

system: barnyard grass; test: Test Example 3: herbicidal effect by foliage application, Wagner pot (Table 18, symbol H); assay type: in vivo, barnyard grass (Echinochloa crus-galli); details: 320 g/ha
Summary of the method: as §1

Row | SMILES | herbicidal effect on H (barnyard grass), rating 0-5
15 | Cc1nn(C)c(=O)c(-c2c(-c3ccc(OCC#N)cc3)sc3ccc(F)cc23)c1O [2-066] | 4 (Herbicidal rate of 70% or more and less than 90%)

system: blackgrass; test: Test Example 5: herbicidal effect by foliage application, plastic box (Table 20, symbol J); assay type: in vivo, blackgrass (Alopecurus myosuroides); details: foliage application, 320 g/ha, evaluated three weeks after application
Summary of the method: as §2

Row | SMILES | herbicidal effect on J: blackgrass
16 | Cc1nn(C)c(=O)c(-c2c(-c3ccc(OCC#N)cc3)sc3ccc(F)cc23)c1O [2-066] | 0 (Herbicidal rate of 5% or less (almost no effect))

system: southern crabgrass; test: Test Example 5: herbicidal effect by foliage application, plastic box (Table 20, symbol F); assay type: in vivo, southern crabgrass (Digitaria ciliaris); details: foliage application, 320 g/ha, evaluated three weeks after application
Summary of the method: as §2

Row | SMILES | herbicidal effect on F: southern crabgrass
17 | Cc1nn(C)c(=O)c(-c2c(-c3ccc(OCC#N)cc3)sc3ccc(F)cc23)c1O [2-066] | 3 (Herbicidal rate of 40% or more and less than 70%)

system: blackgrass; test: Test Example 4: herbicidal effect by soil treatment (Table 19, symbol J); assay type: in vivo, blackgrass (Alopecurus myosuroides); details: 320 g/ha
Summary of the method: as §3

Row | SMILES | herbicidal effect rating, J: blackgrass
18 | Cc1nn(C)c(=O)c(-c2c(-c3ccc(OCC#N)cc3)sc3ccc(F)cc23)c1O [2-066] | 0 (Herbicidal rate of 5% or less (almost no effect))

system: persian speedwell; test: Test Example 4: herbicidal effect by soil treatment (Table 19, symbol R); assay type: in vivo, Persian speedwell (Veronica persica); details: 320 g/ha
Summary of the method: as §3

Row | SMILES | herbicidal effect rating, R: persian speedwell
19 | Cc1nn(C)c(=O)c(-c2c(-c3ccc(OCC#N)cc3)sc3ccc(F)cc23)c1O [2-066] | 4 (Herbicidal rate of 70% or more and less than 90%)

system: rice flat sedge; test: Test Example 3: herbicidal effect by foliage application, Wagner pot (Table 18, symbol E); assay type: in vivo, rice flat sedge (Cyperus iria); details: 320 g/ha
Summary of the method: as §1

Row | SMILES | herbicidal effect on E (rice flat sedge), rating 0-5
20 | Cc1nn(C)c(=O)c(-c2c(-c3ccc(OCC#N)cc3)sc3ccc(F)cc23)c1O [2-066] | 1 (Herbicidal rate of 5% or more and less than 20%)

system: wild oat; test: Test Example 5: herbicidal effect by foliage application, plastic box (Table 20, symbol I); assay type: in vivo, wild oat (Avena fatua); details: foliage application, 320 g/ha, evaluated three weeks after application
Summary of the method: as §2

Row | SMILES | herbicidal effect on I: wild oat
21 | Cc1nn(C)c(=O)c(-c2c(-c3ccc(OCC#N)cc3)sc3ccc(F)cc23)c1O [2-066] | 0 (Herbicidal rate of 5% or less (almost no effect))

system: Italian ryegrass; test: Test Example 4: herbicidal effect by soil treatment (Table 19, symbol K); assay type: in vivo, Italian ryegrass (Lolium multiflorum); details: 320 g/ha
Summary of the method: as §3

Row | SMILES | herbicidal effect rating, K: Italian ryegrass
22 | Cc1nn(C)c(=O)c(-c2c(-c3ccc(OCC#N)cc3)sc3ccc(F)cc23)c1O [2-066] | 0 (Herbicidal rate of 5% or less (almost no effect))

system: velvetleaf; test: Test Example 4: herbicidal effect by soil treatment (Table 19, symbol M); assay type: in vivo, velvetleaf (Abutilon theophrasti); details: 320 g/ha
Summary of the method: as §3

Row | SMILES | herbicidal effect rating, M: velvetleaf
23 | Cc1nn(C)c(=O)c(-c2c(-c3ccc(OCC#N)cc3)sc3ccc(F)cc23)c1O [2-066] | 0 (Herbicidal rate of 5% or less (almost no effect))

system: barnyard grass; test: Test Example 4: herbicidal effect by soil treatment (Table 19, symbol H); assay type: in vivo, barnyard grass (Echinochloa crus-galli); details: 320 g/ha
Summary of the method: as §3

Row | SMILES | herbicidal effect rating, H: barnyard grass
24 | Cc1nn(C)c(=O)c(-c2c(-c3ccc(OCC#N)cc3)sc3ccc(F)cc23)c1O [2-066] | 0 (Herbicidal rate of 5% or less (almost no effect))

system: lambsquarters; test: Test Example 5: herbicidal effect by foliage application, plastic box (Table 20, symbol O); assay type: in vivo, lambsquarters (Chenopodium album); details: foliage application, 320 g/ha, evaluated three weeks after application
Summary of the method: as §2

Row | SMILES | herbicidal effect on O: lambsquarters
25 | Cc1nn(C)c(=O)c(-c2c(-c3ccc(OCC#N)cc3)sc3ccc(F)cc23)c1O [2-066] | 4 (Herbicidal rate of 70% or more and less than 90%)

system: redroot pigweed; test: Test Example 5: herbicidal effect by foliage application, plastic box (Table 20, symbol N); assay type: in vivo, redroot pigweed (Amaranthus retroflexus); details: foliage application, 320 g/ha, evaluated three weeks after application
Summary of the method: as §2

Row | SMILES | herbicidal effect on N: redroot pigweed
26 | Cc1nn(C)c(=O)c(-c2c(-c3ccc(OCC#N)cc3)sc3ccc(F)cc23)c1O [2-066] | 5 (Herbicidal rate of 90% or more (almost completely withered))

system: barnyard grass; test: Test Example 5: herbicidal effect by foliage application, plastic box (Table 20, symbol H); assay type: in vivo, barnyard grass (Echinochloa crus-galli); details: foliage application, 320 g/ha, evaluated three weeks after application
Summary of the method: as §2

Row | SMILES | herbicidal effect on H: barnyard grass
27 | Cc1nn(C)c(=O)c(-c2c(-c3ccc(OCC#N)cc3)sc3ccc(F)cc23)c1O [2-066] | 2 (Herbicidal rate of 20% or more and less than 40%)
